Assay [1] has as its target T1, GST tagged LXRalpha LBD (ligand binding domain) (Homo sapiens, UniProt Q13133).
T1 construct: purchased Invitrogen pv4655
T1 sequence (Q13133 209-447 limits assumed): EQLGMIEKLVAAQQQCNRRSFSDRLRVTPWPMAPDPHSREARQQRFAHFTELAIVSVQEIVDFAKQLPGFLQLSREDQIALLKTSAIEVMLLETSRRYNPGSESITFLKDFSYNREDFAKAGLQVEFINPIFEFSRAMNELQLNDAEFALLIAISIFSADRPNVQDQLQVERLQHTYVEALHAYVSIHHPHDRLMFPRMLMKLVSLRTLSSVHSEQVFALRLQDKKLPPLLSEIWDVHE
The assay is described as follows: LanthaScreen TR-FRET Liver X Receptor Coactivator Assay, LXR alpha-LBD. Format: biochemical. To be noted: relative to reference T0901317; for EC50: Inflection Point (potency), co-activator recruitment, read-out: LXR alpha IP; for Emax / LXR alpha act @ max dose (%): activity at max dose (efficacy); for Emax: read-out: LXR alpha act @ max dose (%). As to the method: (§1) Potency (Inflection Point, IP) and efficacy (Emax) are evaluated via compound-induced co-activator recruitment to glutathione-S-transferase (GST) tagged LXRbeta and LXRalpha LBD (ligand binding domain) proteins in relation to reference dual agonist compound T0901317 (N-(2,2,2-Trifluoroethyl)-N-[4-[2,2,2-trifluoro-1-hydroxy-1-(trifluoromethyl)ethyl] phenyl]benzenesulfonamide) using the LanthaScreen™ TR-FRET Liver X Receptor Coactivator Assays according to manufacturer's instructions (Invitrogen catalog number pv4658.pps and pv4655). While running the LanthaScreen™ TR-FRET Liver X Receptor Coactivator Assay, LXR alpha-LBD or LXR beta-LBD was added to ligand test compounds followed by addition of a mixture of a fluorescein-labelled coactivator peptide and terbium-conjugated anti-GST antibody. After an incubation period at room temperature, TR-FRET (time-resolved fluorescence resonance energy transfer) was measured using a filter-based instrument capable of TR-FRET, e.g. PerkinElmer Envision.
On the technique in general: In TR-FRET formats the signal depends on donor and acceptor labels being close together.

Assay [2] addresses T2, GST tagged LXRbeta LBD (ligand binding domain) (Homo sapiens, UniProt P55055).
T2 construct: purchased Invitrogen pv4658.pps
T2 sequence (P55055 222-460 limits assumed): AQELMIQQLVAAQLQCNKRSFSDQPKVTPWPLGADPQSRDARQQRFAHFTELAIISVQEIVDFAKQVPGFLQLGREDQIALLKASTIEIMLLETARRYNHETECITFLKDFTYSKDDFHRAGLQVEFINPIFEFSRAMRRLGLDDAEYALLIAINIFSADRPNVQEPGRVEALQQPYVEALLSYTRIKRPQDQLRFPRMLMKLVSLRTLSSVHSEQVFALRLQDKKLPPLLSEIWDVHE
Kind of assay: LanthaScreen TR-FRET Liver X Receptor Coactivator Assay, LXR beta-LBD. Type of assay: biochemical. Conditions: relative to reference T0901317; for EC50: Inflection Point (potency), co-activator recruitment, read-out: LXR beta IP; for Emax / LXR beta act @ max dose (%): activity at max dose (efficacy); for Emax: read-out: LXR beta act @ max dose (%). How it is done:
as §1

As for `CN(C)C(=O)c1ccc(N2CCC(C3CCN(C(=O)C(O)(C(C)(C)C)C(F)(F)F)CC3)CC2)cc1Cl` (racemic) [Example A-4, 2-Chloro-4-(1′-(2-hydroxy-3,3-dimethyl-2-(trifluoromethyl)butanoyl)-[4,4′-bipiperidin]-1-yl)-N,N-dimethylbenzamide], in assay [1], the EC50 worked out at 735 nM and the Emax amounted to 65%. Besides, in assay [2], the EC50 stood at 29 nM and the Emax was 104%.

As to `CC(C)[C@@](O)(C(=O)N1CCC(C2CCN(c3ccc(C(=O)N(C)C)c(Cl)c3)CC2)CC1)C(F)(F)F` (single isomer, unassigned) [Example A-2], in assay [1], the EC50 came out at 1030 nM and the Emax is 41%. Further, in assay [2], the EC50 came out at 35 nM and the Emax was found to be 100%.

For `CC(C)[C@](O)(C(=O)N1CCC(C2CCN(c3ccc(C(=O)N(C)C)c(Cl)c3)CC2)CC1)C(F)(F)F` (single isomer, unassigned) [Example A-3], in assay [1], the EC50 was found to be 3550 nM and the Emax worked out at 36%. For the same compound, in assay [2], the EC50 worked out at 63 nM and the Emax worked out at 103%.

Consider `CN(C)C(=O)c1ccc(N2CCC(C3CCN(C(=O)C(O)(C(C)(C)C)C(F)(F)F)CC3)CC2)cc1Cl` (single isomer, unassigned) [Example A-6, 2-Chloro-4-(1′-(2-hydroxy-3,3-dimethyl-2-(trifluoromethyl)butanoyl)-[4,4′-bipiperidin]-1-yl)-N,N-dimethylbenzamide], for which, in assay [1], the EC50 stood at 626 nM and the Emax was determined as 70%. Further, in assay [2], the EC50 amounted to 24 nM and the Emax was determined as 107%.

On to `CN(C)C(=O)c1ccc(N2CCC(C3CCN(C(=O)C(O)(C(C)(C)C)C(F)(F)F)CC3)CC2)cc1Cl` (single isomer, unassigned) [Example A-7, 2-Chloro-4-(1′-(2-hydroxy-3,3-dimethyl-2-(trifluoromethyl)butanoyl)-[4,4′-bipiperidin]-1-yl)-N,N-dimethylbenzamide], for which, in assay [1], the EC50 worked out at 1400 nM and the “LXR alpha act @ max dose (%)” value amounted to 56%. In assay [2], the EC50 was found to be 62 nM and the “LXR beta act @ max dose (%)” value stood at 93%.

For `CN(C)C(=O)c1ccc(N2CCC(C3CCN(C(=O)C(O)(C4CC4)C(F)(F)F)CC3)CC2)cc1Cl` (single isomer, unassigned) [Example A-8, 2-chloro-4-[1′-(2-cyclopropyl-3,3,3-trifluoro-2-hydroxypropanoyl)-4,4′-bipiperidin-1-yl]-N,N-dimethylbenzamide], in assay [1], the EC50 amounted to 1810 nM and the Emax came to 60%. Also, in assay [2], the EC50 turned out to be 247 nM and the Emax amounted to 95%.

For `CN(C)C(=O)c1ccc(N2CCC(C3CCN(C(=O)C(O)(C4CC4)C(F)(F)F)CC3)CC2)cc1Cl` (single isomer, unassigned) [Example A-9, 2-chloro-4-[1′-(2-cyclopropyl-3,3,3-trifluoro-2-hydroxypropanoyl)-4,4′-bipiperidin-1-yl]-N,N-dimethylbenzamide], in assay [1], the EC50 came out at 1200 nM and the “LXR alpha act @ max dose (%)” value came to 56%. In addition, in assay [2], the EC50 was determined as 116 nM and the “LXR beta act @ max dose (%)” value was 110%.

On to `CN(C)C(=O)c1ccc(N2CCC(C3CCN(C(=O)[C@](O)(c4ccccc4)C(F)(F)C(F)(F)F)CC3)CC2)cc1Cl` (single isomer, unassigned) [Example A-20], for which the EC50 in assay [1] is 625 nM; in assay [2], 35 nM. The results for the Emax in assay [1] and in assay [2] were 0% and 146%, respectively.

As for `CC[C@](O)(C(=O)N1CCC(C2CCN(c3ccc(C(=O)N(C)C)c(Cl)c3)CC2)CC1)C(F)(F)F` (single isomer, unassigned) [Example A-42], in assay [1], the EC50 was determined as 3000 nM and the Emax was 67%. For the same compound, in assay [2], the EC50 was 61 nM and the Emax stood at 117%.

With `CN(C)C(=O)c1ccc(N2CCC(C3CCN(C(=O)[C@@](O)(c4ccccc4)C(F)(F)C(F)(F)F)CC3)CC2)cc1Cl` (single isomer, unassigned) [Example A-43], the EC50 came to 620 nM in assay [1] and 54 nM in assay [2]. The Emax in assay [1] is 40%; in assay [2] it was 128%.

Turning to `COc1cccc([C@@](O)(C(=O)N2CCC(C3CCN(c4ccc(C(=O)N(C)C)c(Cl)c4)CC3)CC2)C(F)(F)F)c1` (single isomer, unassigned) [Example A-65], in assay [1], the EC50 turned out to be 2120 nM and the Emax is 19%. For the same compound, in assay [2], the EC50 came to 119 nM and the Emax was determined as 100%.

Regarding `COc1cccc([C@](O)(C(=O)N2CCC(C3CCN(c4ccc(C(=O)N(C)C)c(Cl)c4)CC3)CC2)C(F)(F)F)c1` (single isomer, unassigned) [Example A-66], in assay [1], the EC50 stood at 2480 nM and the Emax turned out to be 21%. Besides, in assay [2], the EC50 is 251 nM and the Emax is 90%.

With `CN(C)C(=O)c1ccc(N2CCC(C3CCN(C(=O)[C@](O)(c4ccccc4)C(F)(F)C(F)(F)F)CC3)CC2)nc1Cl` (single isomer, unassigned) [Example B-16], in assay [1], the EC50 turned out to be 1340 nM and the Emax turned out to be 17%. Further, in assay [2], the EC50 turned out to be 89 nM and the Emax came to 91%.

For `CN(C)C(=O)c1ccc(N2CCC(C3CCN(C(=O)[C@@](O)(c4ccccc4)C(F)(F)C(F)(F)F)CC3)CC2)nc1Cl` (single isomer, unassigned) [Example B-17], the values for the EC50 in assay [1] and in assay [2] were 854 nM and 30 nM, respectively. Moreover, the Emax was determined as 39% in assay [1] and 130% in assay [2].

For `O=C(c1ccc(N2CCC(C3CCN(C(=O)[C@@](O)(c4ccccc4)C(F)(F)F)CC3)CC2)cc1Cl)N1CCCC1` (single isomer, unassigned) [Example E-19], in assay [1], the EC50 is 3140 nM and the Emax was 33%. In assay [2], the EC50 amounted to 284 nM and the Emax was 88%.

Consider `CC(C)C(O)(C(=O)N1CCC(C2CCN(c3ccc(C(=O)N(C)C)c(Cl)n3)CC2)CC1)C(F)(F)F` (stereo in doubt) [Example B-5, 2-chloro-6-{1′-[(2R)-2-hydroxy-3-methyl-2-(trifluoromethyl)butanoyl]-4,4′-bipiperidin-1-yl}-N,N-dimethylpyridine-3-carboxamide], for which the EC50 in assay [1] amounted to 1100 nM; in assay [2] it was 27 nM. Besides, the Emax in assay [1] was 61%; in assay [2] it was 115%.

With `CC(C)C(O)(C(=O)N1CCC(C2CCN(c3ccc(C(=O)N(C)C)c(Cl)n3)CC2)CC1)C(F)(F)F` (stereo in doubt) [Example B-6, 2-chloro-6-{1′-[(2S)-2-hydroxy-3-methyl-2-(trifluoromethyl)butanoyl]-4,4′-bipiperidin-1-yl}-N,N-dimethylpyridine-3-carboxamide], in assay [1], the EC50 is 1670 nM and the Emax turned out to be 46%. In addition, in assay [2], the EC50 turned out to be 38 nM and the Emax worked out at 108%.

Take `CN(C)C(=O)c1ccc(N2CCC(C3CCN(C(=O)C(O)(c4ccccc4)C(F)(F)F)CC3)CC2)nc1Cl` (stereo in doubt) [Example B-9, 2-chloro-N,N-dimethyl-6-{1′-[(2R)-3,3,3-trifluoro-2-hydroxy-2-phenylpropanoyl]-4,4′-bipiperidin-1-yl}pyridine-3-carboxamide]: the values for the EC50 in assay [1] and in assay [2] were 1970 nM and 48 nM, respectively. Moreover, the Emax in assay [1] is 31%; in assay [2], 104%.

As to `CN(C)C(=O)c1ccc(N2CCC(C3CCN(c4ccccc4C(F)(F)F)CC3)CC2)cc1Cl` [Example A106, 2-chloro-N,N-dimethyl-4-{1′-[2-(trifluoromethyl)phenyl]-4,4′-bipiperidin-1-yl}benzamide], in assay [1], the EC50 came out at 2110 nM and the Emax amounted to 27%. For the same compound, in assay [2], the EC50 was 526 nM and the Emax is 91%.

Consider `CN(C)C(=O)c1ccc(N2CCC(C3CCN(C(=O)OC(C)(C)C)CC3)CC2)cc1Cl` [Example A-1, tert-Butyl 1′-(3-chloro-4-(dimethylcarbamoyl)phenyl)-[4,4′-bipiperidine]-1-carboxylate], for which, in assay [1], the EC50 was 748 nM and the Emax came to 76%. In addition, in assay [2], the EC50 is 16 nM and the Emax came to 106%.

Values taken from patent US20180305332A1, “Bispiperidinyl Derivatives as Liver X Receptor Beta Agonists, Compositions, and Their Use” (Merck Sharp & Dohme Corp., priority 2015, published 2018).
